From patent publication US20210347775A1, “Deuterated Imidazo[4,5-c]quinolin-2-one Compounds and Their Use in Treating Cancer” (AstraZeneca AB, priority 2017, published 2021)

Experiments:
ATM = biological target: T1, ATM (Homo sapiens, UniProt Q13315); experiment: Assay a): ATM cellular potency (pATM Ser1981 in irradiated HT29 cells); format: cell-based; conditions: Table 2; HT29 cells, pATM Ser1981 after X-ray irradiation; may be geometric mean of several tests; read-out: Assay a) ATM Cell IC50
T1 construct: endogenous in cells; host or cells: HT29 cells (ECACC #85061109)
Description: (§1) The following assays were used to measure the effects of the compounds of the present invention: a) ATM cellular potency assay; b) PI3K cellular potency assay; c) mTOR cellular potency assay; d) ATR cellular potency assay. During the description of the assays, generally: • i. […] IC50 values were calculated using a smart fitting model in Genedata. […]
The rationale of the pATM assay is to identify inhibitors of ATM in cells. […] The fluorescence is read on the arrayscan imaging platform. […]
Phospho-ATM Ser1981 antibody (Millipore #MAB3806) was diluted 10000 fold in PBS containing 0.05% polysorbate/Tween and 3% BSA and 20 μl was added to each well and incubated over night at r.t. […] After 1 h incubation at r.t., the plates were washed three times with 50 μl/well PBS, using a Biotek EL405 plate washer, and plates were sealed and kept in PBS at 4° C. until read. Plates were read using an ArrayScan VTI instrument, using an XF53 filter with 10× objective. […]

ATR = biological target: T2, ATR (Homo sapiens, UniProt Q13535); experiment: Assay b): ATR cellular potency (pChk1 Ser345 in HT29 cells after 4NQO); format: cell-based; conditions: Table 3 comparative data; HT29 cells, pChk1 Ser345 after 4NQO; may be geometric mean of several tests; read-out: Assay b) ATR Cell IC50
T2 construct: endogenous in cells; host or cells: HT29 cells (ECACC #85061109)
T2 sequence (Q13535 whole entry): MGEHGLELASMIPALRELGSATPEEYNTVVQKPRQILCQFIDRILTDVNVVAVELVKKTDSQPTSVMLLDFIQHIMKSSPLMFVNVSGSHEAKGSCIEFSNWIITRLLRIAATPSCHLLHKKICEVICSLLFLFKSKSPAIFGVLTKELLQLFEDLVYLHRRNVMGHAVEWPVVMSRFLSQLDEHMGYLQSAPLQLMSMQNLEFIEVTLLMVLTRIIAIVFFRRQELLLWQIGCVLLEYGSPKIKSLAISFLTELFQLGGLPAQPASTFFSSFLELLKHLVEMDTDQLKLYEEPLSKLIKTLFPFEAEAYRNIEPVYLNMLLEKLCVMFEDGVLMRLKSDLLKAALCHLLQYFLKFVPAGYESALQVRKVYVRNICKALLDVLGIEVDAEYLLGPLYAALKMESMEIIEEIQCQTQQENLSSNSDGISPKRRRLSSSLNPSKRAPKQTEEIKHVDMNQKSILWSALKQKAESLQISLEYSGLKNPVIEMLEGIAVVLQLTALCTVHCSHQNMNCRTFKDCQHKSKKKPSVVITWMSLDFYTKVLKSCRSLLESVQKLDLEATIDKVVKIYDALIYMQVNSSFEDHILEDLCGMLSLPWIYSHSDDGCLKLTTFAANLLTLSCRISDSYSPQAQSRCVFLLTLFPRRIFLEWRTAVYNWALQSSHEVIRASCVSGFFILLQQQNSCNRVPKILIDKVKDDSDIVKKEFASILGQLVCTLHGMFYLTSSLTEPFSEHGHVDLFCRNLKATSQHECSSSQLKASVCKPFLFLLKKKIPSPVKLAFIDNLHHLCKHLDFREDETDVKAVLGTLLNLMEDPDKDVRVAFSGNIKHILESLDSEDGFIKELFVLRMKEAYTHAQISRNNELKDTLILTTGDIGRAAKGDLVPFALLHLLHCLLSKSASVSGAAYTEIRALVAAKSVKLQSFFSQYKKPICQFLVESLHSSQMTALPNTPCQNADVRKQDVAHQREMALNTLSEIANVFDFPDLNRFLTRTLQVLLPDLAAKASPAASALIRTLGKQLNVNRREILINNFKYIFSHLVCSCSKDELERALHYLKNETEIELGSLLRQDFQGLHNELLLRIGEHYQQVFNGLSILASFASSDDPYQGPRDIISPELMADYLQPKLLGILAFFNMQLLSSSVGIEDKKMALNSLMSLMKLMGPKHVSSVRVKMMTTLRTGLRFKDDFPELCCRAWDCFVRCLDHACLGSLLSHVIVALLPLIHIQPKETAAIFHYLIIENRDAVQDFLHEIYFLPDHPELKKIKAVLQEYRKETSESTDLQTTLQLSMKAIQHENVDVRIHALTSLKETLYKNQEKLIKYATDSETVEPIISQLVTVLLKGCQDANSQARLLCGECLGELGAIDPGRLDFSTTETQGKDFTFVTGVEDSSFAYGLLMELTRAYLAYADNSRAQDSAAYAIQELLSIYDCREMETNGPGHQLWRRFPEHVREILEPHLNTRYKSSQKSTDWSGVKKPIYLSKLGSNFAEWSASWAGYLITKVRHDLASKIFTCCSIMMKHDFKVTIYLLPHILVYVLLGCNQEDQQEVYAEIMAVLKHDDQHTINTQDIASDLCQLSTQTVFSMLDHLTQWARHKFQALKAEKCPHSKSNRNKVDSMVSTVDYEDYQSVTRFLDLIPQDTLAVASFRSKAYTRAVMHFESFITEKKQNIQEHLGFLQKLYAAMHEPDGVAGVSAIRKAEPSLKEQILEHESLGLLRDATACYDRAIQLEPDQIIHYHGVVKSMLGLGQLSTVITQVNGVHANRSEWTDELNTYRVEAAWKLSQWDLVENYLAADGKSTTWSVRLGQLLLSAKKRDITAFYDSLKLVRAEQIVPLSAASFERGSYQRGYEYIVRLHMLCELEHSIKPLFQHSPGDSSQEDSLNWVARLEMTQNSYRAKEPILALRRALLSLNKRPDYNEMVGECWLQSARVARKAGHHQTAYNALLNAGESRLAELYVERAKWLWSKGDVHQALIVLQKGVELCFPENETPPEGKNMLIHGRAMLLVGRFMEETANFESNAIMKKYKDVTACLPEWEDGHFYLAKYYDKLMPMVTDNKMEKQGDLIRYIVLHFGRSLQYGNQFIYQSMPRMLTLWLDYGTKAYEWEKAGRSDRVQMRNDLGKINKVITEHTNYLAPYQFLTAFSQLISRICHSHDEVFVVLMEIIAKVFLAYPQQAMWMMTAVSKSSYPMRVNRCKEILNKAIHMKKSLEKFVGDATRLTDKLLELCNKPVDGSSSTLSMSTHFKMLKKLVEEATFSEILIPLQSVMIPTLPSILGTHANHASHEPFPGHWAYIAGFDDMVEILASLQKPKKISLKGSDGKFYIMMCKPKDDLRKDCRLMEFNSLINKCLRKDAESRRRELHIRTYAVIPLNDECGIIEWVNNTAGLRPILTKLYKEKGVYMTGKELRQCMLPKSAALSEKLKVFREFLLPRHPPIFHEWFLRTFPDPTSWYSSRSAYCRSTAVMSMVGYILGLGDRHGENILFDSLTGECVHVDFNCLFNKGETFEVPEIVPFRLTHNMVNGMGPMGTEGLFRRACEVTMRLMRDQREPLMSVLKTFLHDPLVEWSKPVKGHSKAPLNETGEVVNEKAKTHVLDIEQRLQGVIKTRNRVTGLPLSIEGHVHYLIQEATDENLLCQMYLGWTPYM
T2 sequence (Q8WXE1 whole entry partner): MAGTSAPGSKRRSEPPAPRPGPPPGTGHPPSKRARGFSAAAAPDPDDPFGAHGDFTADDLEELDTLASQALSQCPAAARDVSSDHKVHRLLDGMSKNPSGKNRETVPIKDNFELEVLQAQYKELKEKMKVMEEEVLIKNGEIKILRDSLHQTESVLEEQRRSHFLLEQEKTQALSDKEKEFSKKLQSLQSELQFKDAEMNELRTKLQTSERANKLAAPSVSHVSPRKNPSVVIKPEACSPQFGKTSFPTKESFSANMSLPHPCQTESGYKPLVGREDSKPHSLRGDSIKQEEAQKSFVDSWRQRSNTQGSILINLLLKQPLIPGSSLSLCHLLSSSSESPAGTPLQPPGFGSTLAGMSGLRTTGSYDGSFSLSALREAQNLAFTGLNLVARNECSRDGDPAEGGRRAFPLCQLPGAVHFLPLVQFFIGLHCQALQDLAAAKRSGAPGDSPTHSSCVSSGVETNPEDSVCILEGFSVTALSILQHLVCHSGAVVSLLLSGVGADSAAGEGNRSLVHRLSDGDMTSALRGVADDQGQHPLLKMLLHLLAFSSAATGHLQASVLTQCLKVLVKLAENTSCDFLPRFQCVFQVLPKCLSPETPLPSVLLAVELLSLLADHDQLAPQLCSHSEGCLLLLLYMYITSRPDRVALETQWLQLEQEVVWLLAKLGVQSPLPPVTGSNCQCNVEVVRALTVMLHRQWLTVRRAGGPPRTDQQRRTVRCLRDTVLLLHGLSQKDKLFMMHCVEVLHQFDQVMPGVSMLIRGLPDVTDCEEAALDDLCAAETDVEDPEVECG
Description: as §1
Phospho-Chk1 Ser 345 antibody (Cell Signalling Technology #2348) was diluted 150 fold in PBS containing 0.05% polysorbate/Tween and 15 μl was added to each well and incubated over night at r.t. […] After 2 h incubation at r.t., the plates were washed three times with 50 μl/well PBS, using a Biotek EL405 plate washer, and plates were then sealed with black plate seals until read. Plates were read using an ArrayScan VTI instrument, using an XF53 filter with 10× objective. […]

| SMILES | IC50 (ATM) [µM] | IC50 (ATR) [µM] |
| --- | --- | --- |
| [2H]c1c(F)c(-c2ccc(OCCCN3CCCCC3)nc2)cc2c1nc([2H])c1c2n(C(C)C)c(=O)n1C [Example 1, 4,6-Dideuterio-7-fluoro-1-isopropyl-3-methyl-8-[6-[3-(1-piperidyl)propoxy]-3-pyridyl]imidazo[4,5-c]quinolin-2-one] | 0.0025 |  |
| Cn1c(=O)n(C2CCOCC2)c2c3cc(-c4cnn(CCCO)c4)ccc3ncc21 [CN102399218A Compound 60] |  | 0.419 |
